The values that follow come from US6596772B1, “Phosphate mimics and methods of treatment using phosphatase inhibitors” (Sugen, Inc., priority 1999, dated 2003).

Test [1] deals with T1, PTP DEP1 (Homo sapiens, UniProt Q12913).
T1 construct: GST-fusion proteins encompassing the entire cytoplasmic domain was done by PCR; made in house; host or cells: E. coli BL-21 (pGEX 2T)
T1 sequence (Q12913 997-1337 limits assumed): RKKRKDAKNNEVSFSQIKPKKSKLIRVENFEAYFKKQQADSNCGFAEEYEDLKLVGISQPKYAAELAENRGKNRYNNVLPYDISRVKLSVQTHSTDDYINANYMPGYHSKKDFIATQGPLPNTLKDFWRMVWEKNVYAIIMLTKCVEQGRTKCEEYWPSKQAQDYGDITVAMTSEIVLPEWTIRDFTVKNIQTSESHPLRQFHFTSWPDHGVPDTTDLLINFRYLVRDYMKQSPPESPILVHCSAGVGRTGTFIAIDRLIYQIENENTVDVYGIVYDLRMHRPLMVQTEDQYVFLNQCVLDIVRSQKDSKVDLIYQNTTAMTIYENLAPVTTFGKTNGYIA
As to the kind of experiment: PTP IC50 assay, pNPP or FDP as substrate. Type of test: biochemical. As to conditions: 25° C. As to the method:
(§1) The following in vitro assay procedure is preferred to determine the level of activity and effect of the different compounds of the present invention on one or more of the PTPs. Similar assays can be designed along the same lines for any PTP using techniques well known in the art.
(§2) The catalytic assays described herein are performed in a 96-well format. The general procedure begins with the determination of PTP optimal pH using a three-component buffer system that minimizes ionic strength variations across a wide range of buffer pH. Next, the Michaelis-Menten constant, or Km, is determined for each specific substrate-PTP system. This Km value is subsequently used as the substrate reaction concentration for compound screening. Finally, the test PTP is exposed to varying concentrations of compound for fifteen minutes and allowed to react with substrate for ten minutes. The results are plotted as percent inhibition versus compound concentration and the IC50 interpolated from the plot.
(§3) All assays were performed using pNPP or FDP as substrate. The optimum pH was determined for each PTP used.
(§4) PTPase activity was assayed at 25° C. in a 100-μl reaction mixture containing an appropriate concentration of pNPP or FDP as substrate. The reaction was initiated by addition of the PTP and quenched after 10 min by addition of 50 μl of IN NaOH. The non-enzymatic hydrolysis of the substrate was corrected by measuring the control without the addition of the enzyme. The amount of p-nitrophenol produced was determined from the absorbance at 410 nm. To determine the kinetic parameter, Km, the initial velocities were measured at various substrate concentrations and the data were fitted to the Michaelis equation where velocity=(Vmax*[S])/(Km+[S]), and [S]=substrate reaction concentration.
(§5) The effect of the compounds on PTP was evaluated at 25° C. using pNPP or FDP as substrate. PTP was pre-incubated for fifteen minutes with various concentrations of compound. Substrate was then added at a fixed concentration (usually equal to the Km previously calculated). After 10 minutes, NaOH was added to stop the reaction. The hydrolysis of pNPP was followed at 410 nm on the Biotek Powerwave 200 microplate scanning spectrophotometer. The percent inhibition was calculated as follows: Percent Inhibition=[(control signal−compound signal)/control signal] ×100%. The IC50 was then determined by interpolation of a percent inhibition versus compound concentration plot.
(§6) Plasmids designed for bacterial GST-PTP fusion protein expression were derived by insertion of PCR-generated human PTP fragments into pGEX vectors (Pharmacia Biotech). Several of these constructs were then used to subclone phosphatases into pFastBac-1for expression in Sf-9 insect cells. Oligonucleotides used for the initial amplification of PTP genes are shown below. The cDNAs were prepared using the Gilbo BRL superscript preamplification system on RNAs purchased from Clontech.
The full length DEP1 cDNA was isolated from a human mammary cDNA library (Clontech). The construction of GST-fusion proteins encompassing the entire cytoplasmic domain was done by PCR using the following oligos; 5′oligo: 5′-[…]-3′ (SEQ ID NO: 20) 3′oligo: 5′-[…]-3′ (SEQ ID NO: 21) It was subsequently ligated into the Eco RI/Bam H1 sites of pGEX 2T.

The target of test [2] is T2, PTP PEST (Homo sapiens, UniProt Q05209).
T2 construct: made in house; host or cells: E. coli BL-21 (pGEX 6P-1)
T2 sequence (Q05209 1-343 limits assumed): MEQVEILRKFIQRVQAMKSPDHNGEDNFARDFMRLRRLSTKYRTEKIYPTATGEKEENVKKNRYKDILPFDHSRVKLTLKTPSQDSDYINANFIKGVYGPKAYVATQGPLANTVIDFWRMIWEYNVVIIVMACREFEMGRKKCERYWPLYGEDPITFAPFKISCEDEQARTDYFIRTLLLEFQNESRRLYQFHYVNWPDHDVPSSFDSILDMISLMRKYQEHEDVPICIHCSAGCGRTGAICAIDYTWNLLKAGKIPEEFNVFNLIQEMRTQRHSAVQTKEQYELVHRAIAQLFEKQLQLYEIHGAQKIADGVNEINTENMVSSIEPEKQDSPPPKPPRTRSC
As to the kind of experiment: PTP IC50 assay, pNPP or FDP as substrate. It counts as biochemical. As to conditions: 25° C. The protocol:
as §1, §2, §3, §4, §5, §6
The PTP PEST CDNA was amplified from an HeLa cDNA library (Clonetech RNA) using the following oligonucleotides: 5′oligo: 5′-[…]-3′ (SEQ ID NO: 14) 3′oligo: 5′-[…]-3′ (SEQ ID NO: 15) It was subsequently ligated into the Eco RI/Xho I sites of pGEX 6P-1.

Test [3] has as its target T3, PTP ZETA (Homo sapiens, UniProt P23471).
T3 construct: made in house; host or cells: E. coli BL-21 (pGEX 6P-1)
As to the kind of experiment: PTP IC50 assay, pNPP or FDP as substrate. It counts as biochemical. As to conditions: 25° C. The protocol:
as §1, §2, §3, §4, §5, §6
The PTP Zeta cDNA was amplified from human placenta single strand cDNA (Clontech RNA) using the following oligonucleotides 5′oligo: 5′-[…]-3′ (SEQ ID NO: 10) 3′oligo: 5′-[…]-3′ (SEQ ID NO: 11) and subsequently ligated into pGEX 6P-1 Eco RI/Xho I sites.

Test [4] relates to PTPs. As to the kind of experiment: Direct comparison of R groups against the PTPs. As to conditions: change of the R group from CF3SO2NH—. It counts as biochemical, human. As to the method:
as §5

One may read the IC50 as the concentration needed to halve the response being measured.

T3 sequence (P23471 1667-2028 limits assumed): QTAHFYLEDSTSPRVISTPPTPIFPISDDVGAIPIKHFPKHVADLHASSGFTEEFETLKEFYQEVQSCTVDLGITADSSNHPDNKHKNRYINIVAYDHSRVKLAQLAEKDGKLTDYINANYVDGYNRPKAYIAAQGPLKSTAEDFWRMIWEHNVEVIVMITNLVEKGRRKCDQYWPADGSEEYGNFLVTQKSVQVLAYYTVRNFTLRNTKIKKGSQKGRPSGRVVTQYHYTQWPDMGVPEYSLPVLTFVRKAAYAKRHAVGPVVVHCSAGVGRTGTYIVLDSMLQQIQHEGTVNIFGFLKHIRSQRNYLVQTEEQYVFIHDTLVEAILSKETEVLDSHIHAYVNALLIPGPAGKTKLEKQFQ

As to `O=S(=O)(Nc1ccc(OCCCOc2ccc(NS(=O)(=O)C(F)(F)F)cc2)cc1)C(F)(F)F` [Example 69, 1,3-Bis(4-trifluoromethylsulfonamidophenoxy)propane], the IC50 was greater than 100 µM in test [1], 7.86 µM in test [2] and greater than 100 µM in test [3].

Turning to `O=S(=O)(Nc1ccc(OCCCCOc2ccc(NS(=O)(=O)C(F)(F)F)cc2)cc1)C(F)(F)F` [Example 70, 1,4-Bis(4-trifluoromethylsulfonamidophenoxy)butane], the IC50 is 24.5 µM in test [1], 6.75 µM in test [2] and greater than 100 µM in test [3].

Consider `O=S(=O)(c1ccc(CCc2ccc(S(=O)(=O)C(F)(F)F)cc2)cc1)C(F)(F)F` [Example 4, 1,2-Bis(4-trifluoromethylsulfonylphenyl)ethane], for which the IC50 in test [1] was 26.1 µM; in test [2] it was greater than 100 µM; in test [3], greater than 100 µM.

Regarding `O=S(=O)(c1ccc(COCc2ccc(S(=O)(=O)C(F)(F)F)cc2)cc1)C(F)(F)F` [Example 1, Bis (4-trifluoromethylsulfonylbenzyl) ether], the IC50 in test [1] is 24.2 µM; in test [2], greater than 100 µM; in test [3], greater than 100 µM.

On to `O=S(=O)(Nc1ccc(Oc2ccc(Oc3ccc(NS(=O)(=O)C(F)(F)F)cc3)cc2)cc1)C(F)(F)F` [Example 71, 1,4-Bis(4-trifluoromethylsulfonamidophenoxy)benzene], for which the IC50 in test [1] is 49 µM; in test [2] it was 0.98 µM; in test [3], 64.3 µM.

In the case of `O=C(NCc1ccc(S(=O)(=O)C(F)(F)F)cc1)c1ccccc1` [Example 6, N-(4-Trifluoromethylsulfonylbenzyl)benzamide], the IC50 in test [1], in test [2] and in test [3] was greater than 100 µM throughout.

`CC(C)(COc1ccc(NS(=O)(=O)C(F)(F)F)cc1)COc1ccc(NS(=O)(=O)C(F)(F)F)cc1` [Example 68, 1,3-Bis(4-trifluoromethylsulfonamidophenoxy)-2,2-dimethylpropane]: the IC50 was 25 µM in test [1], 9.33 µM in test [2] and greater than 100 µM in test [3].

Take `O=C(c1ccccc1)N(Cc1ccc(S(=O)(=O)C(F)(F)F)cc1)Cc1ccc(S(=O)(=O)C(F)(F)F)cc1` [Example 3, N,N-Bis(4-trifluoromethylsulfonylbenzyl)benzamide]: the IC50 in test [1] is 40.9 µM; in test [2], greater than 100 µM; in test [3], greater than 100 µM.

In the case of `O=S(=O)(c1ccc(COc2ccc(S(=O)(=O)C(F)(F)F)cc2)cc1)C(F)(F)F` [Example 2, 4-Trifluoromethylsulfonylbenzyl 4-trifluoromethylsulfonylphenyl ether], the IC50 in test [1] was 16.5 µM; in test [2] it was 25.6 µM; in test [3], greater than 100 µM.

For the compound `O=C(NCc1ccc(S(=O)(=O)C(F)(F)F)cc1)c1ccc(S(=O)(=O)C(F)(F)F)cc1` [Example 5, N-(4-Trifluoromethylsulfonylbenzyl)-4-trifluoromethylsulfonylbenzamide], the IC50 in test [1], in test [2] and in test [3] was greater than 100 µM throughout.

Consider `O=S(=O)(Nc1ccc(CCc2ccc(NS(=O)(=O)C(F)(F)F)cc2)cc1)C(F)(F)F` [Example 66, 1,2-Bis(4-trifluoromethylsulfonamidophenyl)ethane], for which the IC50 in test [1] is greater than 100 µM; in test [2] it was 13.3 µM; in test [3], greater than 100 µM.

In the case of `Nc1ccc(Oc2ccc(Oc3ccc(N)cc3)cc2)cc1` [NH2], the “activity relative to the CF3SO2NH— compound” value in test [4] is “complete loss of activity”.

For the compound `Cc1cc(NS(=O)(=O)C(F)(F)F)ccc1CCc1ccc(NS(=O)(=O)C(F)(F)F)cc1C` [Example 67, 1,2-Bis(2-methyl-4-trifluoromethylsulfonamidophenyl)ethane], the 50% inhibitory concentration (IC50) was 85.6 µM in test [1], 10.5 µM in test [2] and greater than 100 µM in test [3].

For `CS(=O)(=O)Nc1ccc(Oc2ccc(Oc3ccc(NS(C)(=O)=O)cc3)cc2)cc1` [CH3SO2NH—], the “activity relative to the CF3SO2NH— compound” value in test [4] is “dramatic decrease in activity”.
